This is an account of results in patent US8377967B2, “Piperidine derivative” (Nippon Zoki Pharmaceutical Co., Ltd., priority 2008, dated 2013).

Usually IC50 stands for the midpoint of a concentration-inhibition curve. A lower IC50 goes with greater potency in that assay.

Structures are written as SMILES. Where a name gives a salt, the structure may show the parent alone.

For the assay, the target named is human histamine H1 receptor (Homo sapiens, UniProt P35367). The experiment in a line: In vitro human histamine H1 receptor binding experiment ([3H]pyrilamine). As to conditions: HEK293A cells stably expressing human histamine H1 receptor, [3H]pyrilamine 3 nmol/L, room temperature 60 minutes. How it is done:
Recombinant human histamine H1 receptor plasmid (prepared by Invitrogen) was transfected to HEK293A cells with Lipofectamine 2000 (manufactured by Invitrogen). Cells stably expressing human histamine H1 receptor were screened with Geneticin (manufactured by Invitrogen). The cells were continued to be cultured using a Dulbecco's Modified Eagle Medium containing 10% fetal bovine serum, 0.1 mmol/L MEM Non-Essential Amino Acids Solution, 2 mmol/L L-glutamine and 0.7 mg/mL Geneticin in a 5% CO2 incubator at 37° C. The cells stably expressing human histamine H1 receptor were prepared using 50 mmol/L Tris-HCl (pH 7.5) (hereinafter referred to as buffer) containing 0.1% bovine serum albumin, so as to have a concentration of 3×10^6 cells/mL, to give a cell sample preparation. Fifty microliters of the buffer, 50 μl of a test substance solution at various concentrations, and 50 μL of [^3H]pyrilamine solution (final concentration: 3 nmol/L) were added to each of the wells on the 96-well plate, and stirred, and 100 μL of the cell sample preparation was then added thereto (at a concentration of 3×10^5 cells/well) to initiate the reaction.
The cells were incubated at room temperature for 60 minutes, and then filtered on UniFilter GF/C plate (manufactured by Packard) immersed in 0.5% polyethyleneimine using a cell harvester (IH-110, manufactured by INNOTECH CORPORATION), to stop the reaction, and the plate was washed with the buffer. The plate after washing was sufficiently dried, and 20 μL of a scintillator (MaxiLight, manufactured by Hidex) was added thereto, and count per minute (cpm) was measured with a multi-labeled microplate reader (Plate Chameleo II, manufactured by Hidex). The nonspecific binding was cpm in a case where 30 μmol/L pyrilamine was added. The experiments were carried out at n=3, and at least repeated 3 times.

Chain of human histamine H1 receptor (P35367 whole entry): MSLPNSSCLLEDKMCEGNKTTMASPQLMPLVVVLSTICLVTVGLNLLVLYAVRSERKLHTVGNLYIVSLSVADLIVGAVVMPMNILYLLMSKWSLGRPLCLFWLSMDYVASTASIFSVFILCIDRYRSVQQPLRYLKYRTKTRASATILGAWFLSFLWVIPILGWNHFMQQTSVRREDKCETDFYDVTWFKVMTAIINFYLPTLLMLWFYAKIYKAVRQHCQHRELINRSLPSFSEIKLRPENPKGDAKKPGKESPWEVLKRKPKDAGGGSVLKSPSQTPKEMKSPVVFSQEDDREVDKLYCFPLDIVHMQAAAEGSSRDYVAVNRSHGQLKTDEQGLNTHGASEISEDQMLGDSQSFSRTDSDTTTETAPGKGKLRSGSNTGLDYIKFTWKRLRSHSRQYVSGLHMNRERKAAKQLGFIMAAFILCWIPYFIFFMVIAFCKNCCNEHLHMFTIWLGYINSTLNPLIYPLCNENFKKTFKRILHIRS

The compound `CN1CCC(=C2c3ccccc3CCc3cc(NC(=O)OC(C)(C)C)sc32)CC1` [Compound 10, 2-t-Butoxycarbonylamino-4-(1-methylpiperidin-4-ylidene)-9,10-dihydro-4H-3-thiabenzo[f]azulene] displayed an IC50 of 88.5 nM.

Compound `CC(=O)NCc1cc2c(s1)CCc1ccccc1C2=C1CCN(C)CC1` [Compound 20, 2-Acetylaminomethyl-4-(1-methylpiperidin-4-ylidene)-9,10-dihydro-4H-1-thiabenzo[f]azulene hydrochloride] returned an IC50 of 15.2 nM.

As for `CCOC(=O)Cc1cc2c(s1)C(=C1CCN(C)CC1)c1ccccc1CC2` [Compound 23, Ethyl[4-(1-methylpiperidin-4-ylidene)-9,10-dihydro-4H-3-thiabenzo[f]azulen-2-yl]acetate hydrochloride], the IC50 turned out to be 3.5 nM.

`CN1CCC(=C2c3ccccc3CCc3sc(C(N)=O)cc32)CC1` [Compound 31, [4-(1-Methylpiperidin-4-ylidene)-9,10-dihydro-4H-1-thiabenzo[f]azulen-2-yl]carboxamide] displayed an IC50 of 16.4 nM.

`COCCNC(=O)c1cc2c(s1)CCc1ccccc1C2=C1CCN(C)CC1` [Compound 38, N-(2-Methoxyethyl)-[4-(1-methylpiperidin-4-ylidene)-9,10-dihydro-4H-1-thiabenzo[f]azulen-2-yl]carboxamide hydrochloride] registered an IC50 of 70.8 nM.

Regarding `CONC(=O)c1cc2c(s1)CCc1ccccc1C2=C1CCN(C)CC1` [Compound 40, N-Methoxy [4-(1-methylpiperidin-4-ylidene)-9,10-dihydro-4H-1-thiabenzo[f]azulen-2-yl]carboxamide hydrochloride], the IC50 was 52.1 nM.

On to `CCOC(=O)c1cc2c(s1)C(=C1CCN(C)CC1)c1ccccc1OC2` [Compound 44, Ethyl[4-(1-methylpiperidin-4-ylidene)-4,10-dihydro-9-oxa-3-thiabenzo[f]azulen-2-yl]carboxylate hydrochloride], for which the IC50 amounted to 19.2 nM.

`CCOC(=O)C=Cc1cc2c(s1)C(=O)Cc1ccccc1C2=C1CCN(C)CC1` [Compound 47, Ethyl 3-[4-(1-methylpiperidin-4-ylidene)-10-oxo-9,10-dihydro-4H-1-thiabenzo[f]azulen-2-yl]acrylate] registered an IC50 of 29.3 nM.

For the compound `CCOC(=O)c1cc2c(s1)C(=O)Cc1ccccc1C2=C1CCN(C)CC1` [Compound 50, Ethyl[4-(1-methylpiperidin-4-ylidene)-10-oxo-9,10-dihydro-4H-1-thiabenzo[f]azulen-2-yl]carboxylate], the IC50 is 16.9 nM.

In turn, `CC(C(=O)O)c1ccc2c(c1)C(=C1CCN(C)CC1)c1sccc1CO2` (centres unmarked) [Compound 57, 2-[4-(1-Methylpiperidin-4-ylidene)-4,10-dihydro-9-oxa-3-thiabenzo[f]azulen-6-yl]propionic acid hydrochloride] registered an IC50 of 70.1 nM.

With `CC(C(=O)O)c1cc2c(s1)C(=C1CCN(C)CC1)c1ccccc1CC2` (centres unmarked) [Compound 60, 2-[4-(1-Methylpiperidin-4-ylidene)-9,10-dihydro-4H-3-thiabenzo[f]azulen-2-yl]propionic acid hydrochloride], the IC50 amounted to 59.1 nM.

Consider `CN1CCC(=C2c3ccccc3CCc3sc(CC(=O)NCCO)cc32)CC1` [Compound 63, N-(2-Hydroxyethyl)-{[4-(1-methylpiperidin-4-ylidene)-9,10-dihydro-4H-1-thiabenzo[f]azulen-2-yl]}acetamide], for which the IC50 stood at 42 nM.

Regarding `CC(C(=O)NCCO)c1ccc2c(c1)C(=C1CCN(C)CC1)c1sccc1CO2` (centres unmarked) [Compound 64, N-(2-Hydroxyethyl)-{2-[4-(1-methylpiperidin-4-ylidene)-4,10-dihydro-9-oxa-3-thiabenzo[f]azulen-6-yl]}propionamide], the IC50 worked out at 48.6 nM.

For the compound `CC(O)CNC(=O)c1cc2c(s1)CCc1ccccc1C2=C1CCN(C)CC1` (centres unmarked) [Compound 70, N-(2-Hydroxypropyl)-{[4-(1-methylpiperidin-4-ylidene)-9,10-dihydro-4H-1-thiabenzo[f]azulen-2-yl]}carboxamide], the IC50 amounted to 93.3 nM.

On to `CC(CO)NC(=O)c1cc2c(s1)CCc1ccccc1C2=C1CCN(C)CC1` (centres unmarked) [Compound 71, N-(1-Hydroxyprop-2-yl)-{[4-(1-methylpiperidin-4-ylidene)-9,10-dihydro-4H-1-thiabenzo[f]azulen-2-yl]}carboxamide], for which the IC50 is 62 nM.

Compound `CN1CCC(=C2c3ccccc3CCc3sc(C(=O)N(C)O)cc32)CC1` [Compound 74, N-Hydroxy-N-methyl-{[4-(1-methylpiperidin-4-ylidene)-9,10-dihydro-4H-1-thiabenzo[f]azulen-2-yl]}carboxamide] had an IC50 of 70.9 nM.

Take `CCOC(=O)Nc1cc2c(s1)CCc1ccccc1C2=C1CCN(C)CC1` [Compound 75, 2-Ethoxycarbonylamino-4-(1-methylpiperidin-4-ylidene)-9,10-dihydro-4H-1-thiabenzo[f]azulene]: the IC50 was found to be 74.8 nM.

In turn, `CN1CCC(=C2c3ccccc3CCc3sc(C(=O)NCCF)cc32)CC1` [Compound 77, N-(2-Fluoroethyl)-{[4-(1-methylpiperidin-4-ylidene)-9,10-dihydro-4H-1-thiabenzo[f]azulen-2-yl]}carboxamide] came in with an IC50 of 37.8 nM.

`CN1CCC(=C2c3ccccc3CCc3sc(C(=O)NO)cc32)CC1` [Compound 78, N-Hydroxy-{[4-(1-methylpiperidin-4-ylidene)-9,10-dihydro-4H-1-thiabenzo[f]azulen-2-yl]}carboxamide] gave an IC50 of 65.1 nM.

Turning to `CN1CCC(=C2c3ccccc3CCc3sc(C(=O)NCC(F)(F)F)cc32)CC1` [Compound 79, N-(2,2,2-Trifluoroethyl)-{[4-(1-methylpiperidin-4-ylidene)-9,10-dihydro-4H-1-thiabenzo[f]azulen-2-yl]}carboxamide], the IC50 turned out to be 28.2 nM.

Turning to `CN1CCC(=C2c3ccccc3CCc3sc(C(=O)NC(C)(C)CO)cc32)CC1` [Compound 80, N-(2-Methyl-1-hydroxyprop-2-yl)-{[4-(1-methylpiperidin-4-ylidene)-9,10-dihydro-4H-1-thiabenzo[f]azulen-2-yl]}carboxamide], the IC50 stood at 69.9 nM.

For `CON(C)C(=O)c1cc2c(s1)CCc1ccccc1C2=C1CCN(C)CC1` [Compound 84, N-Methyl-N-methoxy-{[4-(1-methylpiperidin-4-ylidene)-9,10-dihydro-4H-1-thiabenzo[f]azulen-2-yl]}carboxamide], the half-inhibitory concentration (IC50) was 38.4 nM.

`CCCNC(=O)c1cc2c(s1)CCc1ccccc1C2=C1CCN(C)CC1` [Compound 85, N-Propyl-{[4-(1-methylpiperidin-4-ylidene)-9,10-dihydro-4H-1-thiabenzo[f]azulen-2-yl]}carboxamide]: the IC50 turned out to be 27.5 nM.

With `C=CCNC(=O)c1cc2c(s1)CCc1ccccc1C2=C1CCN(C)CC1` [Compound 86, N-Allyl-{[4-(1-methylpiperidin-4-ylidene)-9,10-dihydro-4H-1-thiabenzo[f]azulen-2-yl]}carboxamide], the IC50 worked out at 21.2 nM.

As to `N#CCCN1CCC(=C2c3ccccc3CCc3sc(C(=O)O)cc32)CC1` [Compound 94, {4-[1-(2-Cyanoethyl)piperidin-4-ylidene]-9,10-dihydro-4H-1-thiabenzo[f]azulen-2-yl}carboxylic acid], the IC50 was determined as 69 nM.

The compound `CCOC(=O)c1ccc2c(c1)C(=C1CCN(C)CC1)c1ccsc1CC2` [Compound 95, Ethyl[4-(1-methylpiperidin-4-ylidene)-9,10-dihydro-4H-1-thiabenzo[f]azulen-6-yl]carboxylate] yielded an IC50 of 14.9 nM.
